Laboratory results: patent US10287259B2, “Selenazolidine and thiazolidine compounds for treating cancer and other diseases” (The Penn State Research Foundation, priority 2016, dated 2019)
Each block holds one compound with its values, some of them ahead of it.

Key:
Format in all cases: cell-based
Panc-1 cells [1] = assay: MTT cell viability assay, Panc-1
Procedure: (§1) MTT (3-(4,5-dimethylthiazol-2-yl)-2,5-diphenyltetrazolium) assay was performed to determine the effect of AS-10 on cancer cell viability (Plano et al., 2016, J. Med. Chem. 1946-1959; Alcolea et al., 2012, Eur. J. Med. Chem. 113:134-144; Kumar et al., 2014, Eur. J. Med. Chem. 81:267-276). Briefly, 3×10^3 cells were treated with different concentrations of AS-10 in triplicate in a 96-well plate for different time points. MTT solution (20 μL of 5.0 mg/mL solution) was added to each well, three hours prior to termination time point and incubated at 37° C. Resultant formazan crystals, at termination time point, were dissolved in 50 μL DMSO. The plate was subjected to a 96-well multiscanner (Dynex Technologies, MRX Revelation; Chantilly, Va., USA) for measuring the optical densities at 570 nm and 630 nm. IC50 values were determined by performing non-linear regression using Graphpad Prism software.
To test the anti-cancer activity of AS-10 in pancreatic cancer (PC) cell lines, a MTT assay was performed. PC cell lines, Panc-1 and BxPC3, were treated with AS-10 at different doses at different time points (24, 48, and 72 h). Resulting cells were subjected to MTT cell viability assay. […] Panc-1 cells were treated with different doses of AS-10 for 48 h. After 48 h, live cells were counted and plated in a new petri dish. Cells were allowed to form colonies for 17 days. At the end of 17 days the colonies were counted and compared to the untreated cells.

Lung cancer cells (A549) = assay: MTT cell viability assay, A549; settings: A549, 48 h (FIG. 5C); acetate functionality removed
Procedure: as §1

LNCaP cells = assay: MTT cell viability test, LNCaP
Procedure: as §1

pancreatic cancer cells = assay: MTT cell viability assay, pancreatic cancer (PC) cells; settings: screening
Procedure: as §1

Panc-1 cells [2] = assay: Western blot analysis of Panc-1 lysates; settings: Panc-1, 48 h; low dose AS-10 2.5 μM, gemcitabine 50 μM
Procedure: Whole-cell lysates were made by subjecting AS-10 treated Panc-1 cells to RIPA lysis buffer (Thermo Scientific, USA) containing protease (Roche, USA) and phosphatase inhibitor cocktails (Sigma-Aldrich, USA) (Plano et al., 2016, J. Med. Chem. 1946-1959). Lysates were spun at 15,000 rpm for 10 minutes. Resulting supernatant was stored at −80° C. until use. NuPAGE gel 4-12% (Life Technologies, Carlsbad, Calif.) was used to resolve the lysates, followed by electro-transfer to PVDF membrane. After the transfer membrane was blocked with 5% non-fat milk and probed with different antibodies. Protein of interest were detected by using enhanced Chemiluminescent reagent (Life technologies, USA). Blots were stripped using Restore Western blot stripping buffer (Thermo Scientific, USA) to save time and samples.

Panc-1 cells [3] = assay: Muse Live/dead Annexin V assay; settings: Panc-1, 48 h; AS-10 2.5 μM, gemcitabine 50 μM
Procedure: Muse Annexin V & Dead Cell kit was used to determine the apoptosis cells in AS-10 treated Panc-1 cells (Plano et al., 2016, J. Med. Chem. 1946-1959). The Muse Annexin V & Dead cell assay contains Annexin V to detect phosphatidylserine (PS) on the outer surface of cells. The kit also contains a dead cell marker, 7-amino-actinomycin D (7-AAD). […] In brief, Panc-1 (1.5×10^5) cells were treated with a given dose of AS-10 or DMSO for appropriate time (0, 6, 12, 24, 36, or 48 h). Both floating cells as well as adherent cells were collected and subjected for Annexin V staining using Muse Annexin V & Dead Cell kit with Muse cell analyzer (EMD Millipore, Billerica, Mass., USA). The obtained data were analyzed using Muse 1.4 software.

Panc-1 cells [4] = assay: Live/dead assay with calcein-AM and ethidium bromide; settings: Panc-1, 48 h; AS-10 2.5 μM, gemcitabine 50 μM
Procedure: To determine the dead cell population, we used LIVE/DEAD Viability/Cytotoxicity Kit (L3224, Life technologies, USA). Panc-1 cells were treated with either DMSO, gemcitabine (50 μM), or AS-10 (2.5 μM) or in combination for 48 h. Live and dead cells were determined by subjecting treated cells to LIVE/DEAD Viability/Cytotoxicity Kit (Plano et al., 2016, J. Med. Chem. 1946-1959). […] While ethidium homodimer-1 can only enter cells who have lost their plasma membrane integrity or dead cells and fluorescents red. Stained cells were visualized using a fluorescence microscope (Zeiss—Axio Scope.A1) with a 20× objective lens. Percentage values of live and dead cells were calculated.

Compound: CC(=O)Oc1ccccc1C(=O)/N=C1\SCCN1C(=O)c1ccccc1OC(C)=O [ASD-123, 2-((3-(2-acetoxybenzoyl)-1,3-thiazolidin-2-ylidene)carbamoyl)phenyl acetate]
potency compared to AS-10 (Panc-1 cells [1]; Panc-1, 48 h (FIG. 5B), Se replaced by S): significant loss in the potency

Compound: O=C(/N=C1\[Se]CCN1C(=O)c1ccccc1)c1ccccc1 [ASD-171, N-(3-benzoyl-1,3-selenazolidin-2-ylidene)benzamide]
potency compared to AS-10 (Lung cancer cells (A549)): significant loss in the potency

EC50 range, growth inhibition (comparison) (LNCaP cells): millimolar range
Compound: CC(=O)Oc1ccccc1C(=O)O [aspirin, reference compound]
effect on PC cell lines at doses similar to AS-10 (pancreatic cancer cells): did not have any effects

Compound: Nc1ccn([C@@H]2O[C@H](CO)[C@@H](O)C2(F)F)c(=O)n1 [gemcitabine, reference compound]
PARP cleavage (Panc-1 cells [2]): no effect on PARP cleavage
total apoptotic cells (Panc-1 cells [3]): ~25%
response of Panc-1 cells to treatment (Panc-1 cells [1]; highest tested dose 500 μM, 48 h): resistant
dead cells (Panc-1 cells [4]): ~10%
